According to patent US20240150356A1, “Pyrimidine amide compounds and use thereof” (ALPHALA CO., LTD., priority 2019, published 2024):
Read-outs that look alike come from different tables or passages of the source.

System: Hep3B cells (hepatocellular carcinoma cell line)
Experiment: In vitro MTS cell viability assay (NCI-60 methodology), Hep3B
Format: cell-based
Conditions: Homo sapiens, 48 h, 2 days drug incubation, 50% reduction vs time zero, read-out: Hep3B LC50
Method in brief: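 Hep3B cells given five 2-fold dilutions of compound for 2 days, with viability by MTS measured at time zero and at end. LC50 is the concentration giving a 50% fall in viable cells relative to the start of treatment, per NCI-60 formula.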

## CC(C)(C)OC(=O)N1CCC(n2ncc3c(NC(=O)c4ccc([N+](=O)[O-])s4)nc(-c4ccc(F)nc4)nc32)CC1 [Compound 9-4, tert-butyl 4-(6-(6-fluoropyridin-3-yl)-4-(5-nitrothiophene-2-carboxamido)-1H-pyrazolo[3,4-d]pyrimidin-1-yl)piperidine-1-carboxylate]
Table 9, MTS
  LC50: 930 nM

## CC(C)(C)c1ccc(-n2ncc3c(NC(=O)c4ccc([N+](=O)[O-])s4)nc(OCC(F)(F)C(F)F)nc32)cc1 [Compound 6-59, N-(1-(4-(tert-butyl)phenyl)-6-(2,2,3,3-tetrafluoropropoxy)-1H-pyrazolo[3,4-d]pyrimidin-4-yl)-5-nitrothiophene-2-carboxamide]
Table 6, MTS
  LC50: 500 nM

## Cc1csc2c(NC(=O)c3ccc([N+](=O)[O-])s3)nc(Oc3ccc(C(C)(C)C)cc3)nc12 [Compound 4-12, N-(2-(4-(tert-butyl)phenoxy)-7-methylthieno[3,2-d]pyrimidin-4-yl)-5-nitrothiophene-2-carboxamide]
Table 4, MTS
  LC50: 1340 nM

## Cc1csc2c(-c3ccc(OC(F)(F)F)cc3)nc(NC(=O)c3ccc([N+](=O)[O-])s3)nc12 [Compound 2-8, N-(7-methyl-4-(4-(trifluoromethoxy)phenyl)thieno[3,2-d]pyrimidin-2-yl)-5-nitrothiophene-2-carboxamide]
Table 2, MTS
  LC50: 1710 nM

## O=C(Nc1nc(-c2ccc(F)cc2)nc2c(-c3cccc(F)c3)csc12)c1ccc([N+](=O)[O-])s1 [Compound 4-18, N-(7-(3-fluorophenyl)-2-(4-fluorophenyl)thieno[3,2-d]pyrimidin-4-yl)-5-nitrothiophene-2-carboxamide]
Table 4, MTS
  LC50: 490 nM

## CC(C)n1ncc2c(-c3ccc(OC(F)(F)F)cc3)nc(NC(=O)c3ccc([N+](=O)[O-])s3)nc21 [Compound 2-3, N-(1-isopropyl-4-(4-(trifluoromethoxy)phenyl)-1H-pyrazolo[3,4-d]pyrimidin-6-yl)-5-nitrothiophene-2-carboxamide]
Table 2, MTS
  LC50: 4020 nM

## O=C(Nc1nc(-c2ccc(F)cc2)nc2c1cnn2C1CCCCCC1)c1ccc([N+](=O)[O-])s1 [Compound 8-10, N-(1-cycloheptyl-6-(4-fluorophenyl)-1H-pyrazolo[3,4-d]pyrimidin-4-yl)-5-nitrothiophene-2-carboxamide]
Table 8, MTS
  LC50: 830 nM

## CCOCCOc1ccc(-c2nc(NC(=O)c3ccc([N+](=O)[O-])s3)c3cnn(-c4ccc(OC)cc4)c3n2)cn1 [Compound 6-27, N-(6-(6-(2-ethoxyethoxy)pyridin-3-yl)-1-(4-methoxyphenyl)-1H-pyrazolo[3,4-d]pyrimidin-4-yl)-5-nitrothiophene-2-carboxamide]
Table 6, MTS
  LC50: 210 nM

## CC(C)(C)c1ccc(-n2ncc3c(NC(=O)c4ccc([N+](=O)[O-])s4)nc(-c4nnc(C(C)(C)C)o4)nc32)cc1 [Compound 6-76, N-(6-(5-(tert-butyl)-1,3,4-oxadiazol-2-yl)-1-(4-(tert-butyl)phenyl)-1H-pyrazolo[3,4-d]pyrimidin-4-yl)-5-nitrothiophene-2-carboxamide]
Table 6, MTS
  LC50: 310 nM

## CC(C)n1cc2nc(-c3ccc(C(C)(C)C)cc3)nc(NC(=O)c3ccc([N+](=O)[O-])s3)c2c1 [Compound 3-12, N-(2-(4-(tert-butyl)phenyl)-6-isopropyl-6H-pyrrolo[3,4-d]pyrimidin-4-yl)-5-nitrothiophene-2-carboxamide]
Table 3, MTS
  LC50: > 10000 nM

## O=C(Nc1nc(-c2ccc(F)cc2F)nc2c1cnn2C1CCCCC1)c1ccc([N+](=O)[O-])s1 [Compound 10-39]
Table 10, MTS
  LC50: 1240 nM

## CC(C)(C)OC(=O)N1CC[C@H](n2ncc3c(NC(=O)c4ccc([N+](=O)[O-])s4)nc(-c4ccc(F)nc4)nc32)C1 [Compound 8-7, tert-butyl (S)-3-(6-(6-fluoropyridin-3-yl)4-(5-nitrothiophene-2-carboxamido)-1H-pyrazolo[3,4-d]pyrimidin-1-yl)pyrrolidine-1-carboxylate]
Table 8, MTS
  LC50: 1490 nM
